Test results reported in US20110217715A1, “GENE EXPRESSION IN DUCHENNE MUSCULAR DYSTROPHY” (CHILDREN'S HOSPITAL MEDICAL CENTER, priority 2008, published 2011).

Key:
[1] = system: mRNA expression in peripheral blood of individuals with DMD; experiment: Whole-blood gene expression microarray: DMD administered prednisone or deflazacort vs DMD not administered steroid; type: in vivo, human
Experimental: Fifteen ml of blood was collected from each individual into 6 PAXgene® Vacutainer® tubes (PreAnalytiX, Germany) by antecubital fossa venipuncture. PAXgene® tubes contain a proprietary reagent that immediately stabilizes RNA, thus reducing RNA degradation and minimizing gene expression changes following phlebotomy. The tubes were then inverted 20 times, then remained undisturbed for 2 h at room temperature (about 19° C. to about 22° C.), and then stored at -70° C. until processed. Total RNA was isolated using the Paxgene® blood RNA kit (PreAnalytiX, Germany) according to the manufacturers instructions. The RNA isolated is from all cells in whole blood. […] Sample labeling, hybridization to chips, and image scanning were performed using standard Affymetrix protocols. For each whole blood sample from control individuals and individuals with DMD, total RNA was labeled using the One-Cycle Target Labeling protocol and hybridized to the arrays. […] Double-stranded cDNA synthesis, biotin-labeled cRNA synthesis, and cRNA fragmentation were performed according to the Affymetrix GeneChip Eukaryotic Expression Analysis protocol. […] After hybridization, the array was washed and stained. […] After scanning the array, the raw probe level values for each probe were saved in Affymetrix.cel files. […] Statistical analyses, including t-test analyses, unsupervised hierarchical clustering, and principal component analyses were conducted using Genespring 7.2 software ([…]® 7, Silicon Genetics, Redwood City Calif.). […] Corrections for multiple comparisons used a Benjamini-Hochberg False Discovery Rate (FDR) of 0.05, disclosed in Tang et al., J Cereb Blood Flow Metab 26 (2006) 1089, which is expressly incorporated by reference herein in its entirety. […] Individuals with DMD were evaluated and had been diagnosed by a single board-certified pediatric neurologist. The diagnosis of DMD was based in part upon clinical history, examination findings, and selected muscle biopsies and was confirmed by molecular diagnostic testing. […] Sample processing and array hybridization, probe-level data analysis, and statistical analysis were identical to Example 1.

individuals with DMD = settings: cited from earlier work
[2] = DMD administered deflazacort or prednisone vs not administered

CC(=O)OCC(=O)[C@@]12N=C(C)O[C@@H]1C[C@H]1[C@@H]3CCC4=CC(=O)C=C[C@]4(C)[C@H]3[C@@H](O)C[C@@]12C [deflazacort]
expression levels of FKBP5 [1, 2]: up-regulated | expression levels of genes in the chondroitin sulfate biosynthesis pathway [1, 2]: up-regulated | expression levels of haptoglobin and CD163 nucleic acids [1, 2]: up-regulated | expression levels of lactotransferrin and lipocalin [1, 2]: increased expression levels | expression of KFL10 ([1]; individuals administered prednisone, deflazacort, or both vs DMD not administered any agent): up-regulated | side effects / weight gain (individuals with DMD; DMD individuals receiving deflazacort, relative to prednisone): fewer side effects, in particular, less weight gain | muscle function and strength (individuals with DMD; individuals with DMD): improved muscle function and strength
